CCN(CC)CCNC(=O)c1c(C)[nH]c(/C=C2\C(=O)Nc3ccc(F)cc32)c1C.O=C(O)C[C@H](O)C(=O)O
Details	solubility (mole fraction)
in PEG-400, 298.2 K	0.00634
in PEG-400, 303.2 K	0.0076
in PEG-400, 308.2 K	0.00996
in PEG-400, 313.2 K	0.0129
in PEG-400, 318.2 K	0.0167

solubility (mole fraction)
Details	in ethanol	in ethylene glycol	in isopropanol	in propylene glycol	in transcutol	in water
298.2 K	0.00277	0.00104	0.00634	0.00179	0.00997	3.72e-06
303.2 K	0.00321	0.00139	0.0076	0.00228	0.0117	4.74e-06
308.2 K	0.00372	0.00186	0.00996	0.00303	0.0136	6.09e-06
313.2 K	0.0043	0.00244	0.0129	0.00385	0.0163	8.46e-06
318.2 K	0.00516	0.00313	0.0167	0.00483	0.0187	1.05e-05
